Assay results: patent US8153818B2, “Triazolyl phenyl benzenesulfonamides” (ChemoCentryx, Inc., priority 2006, dated 2012)

Biological target: T1, CCR9 (Homo sapiens, UniProt P51686)
T1 construct: chemokine expressing cells (such as THP-1 cells for CCR2 assay or MOLT-4 cells for CCR9 assay); host or cells: MOLT-4
T1 sequence (P51686 1-369): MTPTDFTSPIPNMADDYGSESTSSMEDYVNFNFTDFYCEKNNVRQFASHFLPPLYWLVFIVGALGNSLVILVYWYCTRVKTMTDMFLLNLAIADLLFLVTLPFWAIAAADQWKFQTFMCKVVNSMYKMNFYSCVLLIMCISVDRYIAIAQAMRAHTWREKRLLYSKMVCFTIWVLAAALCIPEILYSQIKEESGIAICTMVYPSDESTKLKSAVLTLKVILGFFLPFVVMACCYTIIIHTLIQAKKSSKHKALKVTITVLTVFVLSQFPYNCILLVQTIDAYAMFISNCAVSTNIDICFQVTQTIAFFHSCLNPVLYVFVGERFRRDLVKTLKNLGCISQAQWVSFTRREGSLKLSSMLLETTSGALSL
Assay: CCR9 activity in one of the chemotaxis, binding or calcium mobilization assays
Assay type: cell-based
Settings: assay not specified per compound
Procedure: Conventional migration assay was used to determine the efficacy of potential receptor antagonists in blocking migration mediated through chemokines (such as CCR2 or CCR9). This assay was routinely performed using the ChemoTX® microchamber system with a 5-μm pore-sized polycarbonate membrane. To begin such an assay, chemokine expressing cells (such as THP-1 cells for CCR2 assay or MOLT-4 cells for CCR9 assay) were harvested by centrifugation of cell suspension at 1000 RPM on a GS-6R Beckman centrifuge. The cell pellet was resuspended in chemotaxis buffer (HBSS with 0.1% BSA) at 10×10^6 cells/mL for CCR2 assay (5×10^6 cells/mL for CCR9 assay). Test compounds at desired concentrations were prepared from 10 mM stock solutions by serial dilutions in chemotaxis buffer. An equal volume of cells and compounds were mixed and incubated at room temperature for 15 minutes. Afterwards, 20 μL of the mixture was transferred onto the porous membrane of a migration microchamber, with 29 μL of chemokine ligand (0.1 nM chemokine MCP-1 protein for CCR2 assay or […] chemokine TECK protein for CCR9 assay) placed at the lower chamber. Following an incubation at 37° C. (90-minute for CCR2; 150-minute for CCR9), during which cells migrated against the chemokine gradient, the assay was terminated by removing the cell drops from atop the filter. To quantify cells migrated across the membrane, 5 μL of 7×CyQUANT® solution was added to each well in the lower chamber, and the fluorescence signal measured on a Spectrafluor Plus fluorescence plate reader (TECAN, Durham, N.C.). The degree of inhibition was determined by comparing migration signals between compound-treated and untreated cells. IC50 calculation was further performed by non-linear squares regression analysis using Graphpad Prism (Graphpad Software, San Diego, Calif.).
Calcium flux assay measures an increase in intracellular calcium following ligand-induced receptor activation. In the screen of chemokine antagonists, it was used as a secondary assay carried out on a FLIPR® machine (Molecular Devices, Mountain View, Calif.). To begin an assay, chemokine expressing cells (such as THP-1 cells for CCR2 assay or MOLT-4 cells for CCR9 assay) were harvested by centrifugation of cell suspension, and resuspended to 1.5×10^6 cells/mL in HBSS (with 1% fetal calf serum). Cells were then labeled with a calcium indicator dye Fluo-4 AM for 45 minutes at 37° C. with gentle shaking. Following incubation, cells were pelletted, washed once with HBSS and resuspended in the same buffer at a density of 1.6×10^6 cells/mL. One hundred microliters of labeled cells were mixed with 10 μL of test compound at the appropriate concentrations on an assay plate. Chemokine protein (MCP-1 at a final concentration of 0.1 nM for CCR2 assay or TECK at a final concentration of 25 nM for CCR9 assay) to activate the receptor. The degree of inhibition was determined by comparing calcium signals between compound-treated and untreated cells. IC50 calculations were further performed by non-linear squares regression analysis using Graphpad Prism (Graphpad Software, San Diego, Calif.). […]
In the tables below, structures and activity are provided for representative compounds described herein. Activity is provided as follows for either or both of the chemotaxis assay and/or calcium mobilization assays, described above.

SMILES	IC50
CCn1cnnc1-c1cc(Cl)ccc1NS(=O)(=O)c1ccc(C(C)(C)C)cc1 [Compound 31, 4-tert-butyl-N-(4-chloro-2-(4-ethyl-4H-1,2,4-triazol-3-yl)phenyl)benzenesulfonamide]	< 1000 nM
CC(C)(C)c1ccc(S(=O)(=O)Nc2ccc(Cl)cc2-c2nncn2[C@H]2CCNC2)cc1 [Compound 32]	< 1000 nM
Cn1c(-c2cc(Cl)ccc2NS(=O)(=O)c2ccc(C(C)(C)C)cc2)nnc1[C@H]1CCCO1 [Compound 34]	< 1000 nM
CC(C)(C)c1ccc(S(=O)(=O)Nc2ccc(Cl)cc2-c2nncn2C2CCOC2)cc1 (centres unmarked) [Compound 35]	< 1000 nM
Cc1nnc(-c2cc(Cl)c(F)cc2NS(=O)(=O)c2ccc(C(C)(C)C)cc2)n1C [Compound 36, 4-tert-butyl-N-(4-chloro-2-(4,5-dimethyl-4H-1,2,4-triazol-3-yl)-5-fluorophenyl)benzenesulfonamide]	< 1000 nM
CC(C)(C)c1ccc(S(=O)(=O)Nc2cc(F)c(F)cc2-c2nncn2[C@H]2CCNC2)cc1 [Compound 37]	< 1000 nM
CCc1nnc(-c2cc(Cl)ccc2NS(=O)(=O)c2ccc(C(C)(C)C)cc2)n1CC [Compound 38, 4-tert-butyl-N-(4-chloro-2-(4,5-diethyl-4H-1,2,4-triazol-3-yl)phenyl)benzenesulfonamide]	< 1000 nM
CN(C)Cc1nnc(-c2cc(Cl)c(F)cc2NS(=O)(=O)c2ccc(C(C)(C)C)cc2)n1C [Compound 39, 4-tert-butyl-N-(4-chloro-2-(5-((dimethylamino)methyl)-4-methyl-4H-1,2,4-triazol-3-yl)-5-fluorophenyl)benzenesulfonamide]	< 1000 nM
Cn1c(-c2cocn2)nnc1-c1cc(Cl)ccc1NS(=O)(=O)c1ccc(C(C)(C)C)cc1 [Compound 40]	< 1000 nM
COCCc1nnc(-c2cc(Cl)ccc2NS(=O)(=O)c2ccc(C(C)(C)C)cc2)n1C [Compound 41, 4-tert-butyl-N-(4-chloro-2-(5-(2-methoxyethyl)-4-methyl-4H-1,2,4-triazol-3-yl)phenyl)benzenesulfonamide]	< 1000 nM
CC(C)(C)c1ccc(S(=O)(=O)Nc2cc(F)c(F)cc2-c2nncn2C2CCOC2)cc1 (centres unmarked) [Compound 42]	< 1000 nM
CCn1c(-c2cc(Cl)ccc2NS(=O)(=O)c2ccc(C(C)(C)C)cc2)nnc1C(C)C [Compound 43, 4-tert-butyl-N-(4-chloro-2-(4-ethyl-5-isopropyl-4H-1,2,4-triazol-3-yl)phenyl)benzenesulfonamide]	< 1000 nM
CC(C)(C)c1ccc(S(=O)(=O)Nc2cc(F)c(Cl)cc2-c2nncn2C2CCCNC2)cc1 (centres unmarked) [Compound 44]	< 1000 nM
CNCc1nnc(-c2cc(Cl)c(F)cc2NS(=O)(=O)c2ccc(C(C)(C)C)cc2)n1C [Compound 45, 4-tert-butyl-N-(4-chloro-5-fluoro-2-(4-methyl-5-((methylamino)methyl)-4H-1,2,4-triazol-3-yl)phenyl)benzenesulfonamide]	< 1000 nM
CC(C)n1c(-c2cc(Cl)ccc2NS(=O)(=O)c2ccc(C(C)(C)C)cc2)nnc1C1CCOCC1 [Compound 46]	< 1000 nM
CCc1nnc(-c2cc(Cl)c(F)cc2NS(=O)(=O)c2ccc(C(C)(C)C)cc2)n1C1CCOC1 (centres unmarked) [Compound 47]	< 1000 nM

SMILES	IC50
CCNCc1nnc(-c2cc(Cl)c(F)cc2NS(=O)(=O)c2ccc(C(C)(C)C)cc2)n1C [Compound 48, 4-tert-butyl-N-(4-chloro-2-(5-((ethylamino)methyl)-4-methyl-4H-1,2,4-triazol-3-yl)-5-fluorophenyl)benzenesulfonamide]	< 1000 nM
CC(C)NCc1nnc(-c2cc(Cl)c(F)cc2NS(=O)(=O)c2ccc(C(C)(C)C)cc2)n1C [Compound 49, 4-tert-butyl-N-(4-chloro-5-fluoro-2-(5-((isopropylamino)methyl)-4-methyl-4H-1,2,4-triazol-3-yl)phenyl)benzenesulfonamide]	< 1000 nM
Cn1c(CNC2CC2)nnc1-c1cc(Cl)c(F)cc1NS(=O)(=O)c1ccc(C(C)(C)C)cc1 [Compound 50, 4-tert-butyl-N-(4-chloro-2-(5-((cyclopropylamino)methyl)-4-methyl-4H-1,2,4-triazol-3-yl)-5-fluorophenyl)benzenesulfonamide]	< 1000 nM
COCc1nnc(-c2cc(Cl)c(F)cc2NS(=O)(=O)c2ccc(C(C)(C)C)cc2)n1C(C)C [Compound 51, 4-tert-butyl-N-(4-chloro-5-fluoro-2-(4-isopropyl-5-(methoxymethyl)-4H-1,2,4-triazol-3-yl)phenyl)benzenesulfonamide]	< 1000 nM
COCc1nnc(-c2cc(Cl)c(F)cc2NS(=O)(=O)c2ccc(C(C)(C)C)cc2)n1C1CCOC1 (centres unmarked) [Compound 52, 4-tert-butyl-N-(4-chloro-5-fluoro-2-(5-(methoxymethyl)-4-(tetrahydrofuran-3-yl)-4H-1,2,4-triazol-3-yl)phenyl)benzenesulfonamide]	< 1000 nM
CC(C)(C)c1ccc(S(=O)(=O)Nc2cc(F)c(Cl)cc2-c2nncn2[C@@H]2CCOC2)cc1 [Compound 53]	< 1000 nM
CC(C)(C)c1ccc(S(=O)(=O)Nc2cc(F)c(Cl)cc2-c2nncn2[C@H]2CCOC2)cc1 [Compound 54]	< 1000 nM
Cn1c(C(N)=O)nnc1-c1cc(Cl)c(F)cc1NS(=O)(=O)c1ccc(C(C)(C)C)cc1 [Compound 55, 5-(2-(4-tert-butylphenylsulfonamido)-5-chloro-4-fluorophenyl)-4-methyl-4H-1,2,4-triazole-3-carboxamide]	< 1000 nM
CNC(=O)c1nnc(-c2cc(Cl)c(F)cc2NS(=O)(=O)c2ccc(C(C)(C)C)cc2)n1C [Compound 56, 5-(2-(4-tert-butylphenylsulfonamido)-5-chloro-4-fluorophenyl)-N,4-dimethyl-4H-1,2,4-triazole-3-carboxamide]	< 1000 nM
Cn1c(-c2cc(Cl)c(F)cc2NS(=O)(=O)c2ccc(C(C)(C)C)cc2)nnc1C(C)(C)O [Compound 57, 4-tert-butyl-N-(4-chloro-5-fluoro-2-(5-(2-hydroxypropan-2-yl)-4-methyl-4H-1,2,4-triazol-3-yl)phenyl)benzenesulfonamide]	< 1000 nM
CC(=O)c1nnc(-c2cc(Cl)c(F)cc2NS(=O)(=O)c2ccc(C(C)(C)C)cc2)n1C [Compound 58, N-(2-(5-acetyl-4-methyl-4H-1,2,4-triazol-3-yl)-4-chloro-5-fluorophenyl)-4-tert-butylbenzenesulfonamide]	< 1000 nM
CC(O)c1nnc(-c2cc(Cl)c(F)cc2NS(=O)(=O)c2ccc(C(C)(C)C)cc2)n1C (centres unmarked) [Compound 59, 4-tert-butyl-N-(4-chloro-5-fluoro-2-(5-(1-hydroxyethyl)-4-methyl-4H-1,2,4-triazol-3-yl)phenyl)benzenesulfonamide]	< 1000 nM
C[C@H](O)c1nnc(-c2cc(Cl)c(F)cc2NS(=O)(=O)c2ccc(C(C)(C)C)cc2)n1C [Compound 60]	< 1000 nM
C[C@@H](O)c1nnc(-c2cc(Cl)c(F)cc2NS(=O)(=O)c2ccc(C(C)(C)C)cc2)n1C [Compound 61]	< 1000 nM
COCCc1nnc(-c2cc(Cl)c(F)cc2NS(=O)(=O)c2ccc(C(C)(C)C)cc2)n1C [Compound 62, 4-tert-butyl-N-(4-chloro-5-fluoro-2-(5-(2-methoxyethyl)-4-methyl-4H-1,2,4-triazol-3-yl)phenyl)benzenesulfonamide]	< 1000 nM
Cn1c(-c2cc(Cl)c(F)cc2NS(=O)(=O)c2ccc(C(C)(C)C)cc2)nnc1C1CCCOC1 (centres unmarked) [Compound 63]	< 1000 nM
